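48-hour exposure; five concentrations; linearly interpolated endpoints. GI50 = concentration required for 50% inhibition of growth.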 Calls of active or inactive are those of the source. Rule as the data show it: active = GI50 up to about 1.1 µM and inactive = higher.
Tests used:
Assay in all cases: NCI tumour cell line growth inhibition, 48 h
SR = tested on: SR
UACC-257 = tested on: UACC-257
NCI-H226 = tested on: NCI-H226
NCI-H522 = tested on: NCI-H522
OVCAR-5 = tested on: OVCAR-5
ACHN = tested on: ACHN
HL-60 = tested on: HL-60
MDA-MB-231 = tested on: MDA-MB-231
DU-145 = tested on: DU-145
MDA-N = tested on: MDA-N
CCRF-CEM = tested on: CCRF-CEM
COLO 205 = tested on: COLO 205
HCT-116 = tested on: HCT-116
OVCAR-4 = tested on: OVCAR-4
SNB-75 = tested on: SNB-75
EKVX = tested on: EKVX
SW-620 = tested on: SW-620
TK-10 = tested on: TK-10
KM12 = tested on: KM12

## S=c1ssc2c3ssc(=S)c3n(Cc3ccccc3)c12
SR
  GI50: 0.67 µM (active)
UACC-257
  GI50: > 100 µM (inactive)
NCI-H226
  GI50: > 100 µM (inactive)
NCI-H522
  GI50: 83.2 µM (inactive)
OVCAR-5
  GI50: > 100 µM (inactive)
ACHN
  GI50: > 100 µM (inactive)
HL-60
  GI50: > 100 µM (inactive)
MDA-MB-231
  GI50: > 100 µM (inactive)
DU-145
  GI50: 54 µM (inactive)
MDA-N
  GI50: > 100 µM (inactive)
CCRF-CEM
  GI50: 17.2 µM (inactive)
COLO 205
  GI50: > 100 µM (inactive)
HCT-116
  GI50: > 100 µM (inactive)
OVCAR-4
  GI50: > 100 µM (inactive)
SNB-75
  GI50: 98.4 µM (inactive)
EKVX
  GI50: 69.7 µM (inactive)
SW-620
  GI50: > 100 µM (inactive)
TK-10
  GI50: > 100 µM (inactive)
KM12
  GI50: > 100 µM (inactive)

## CNC(=O)N(C1=NCC(C)S1)c1ccc(C)c(C)c1 (centres undefined)
SR
  GI50: 3.67 µM (inactive)
UACC-257
  GI50: 16.1 µM (inactive)
NCI-H226
  GI50: 4.6 µM (inactive)
NCI-H522
  GI50: 4.82 µM (inactive)
OVCAR-5
  GI50: 15.6 µM (inactive)
ACHN
  GI50: 12 µM (inactive)
HL-60
  GI50: 1.17 µM (inactive)
MDA-MB-231
  GI50: 12.1 µM (inactive)
DU-145
  GI50: 7.5 µM (inactive)
MDA-N
  GI50: 0.443 µM (active)
CCRF-CEM
  GI50: 2.39 µM (inactive)
COLO 205
  GI50: 3.56 µM (inactive)
HCT-116
  GI50: 3.5 µM (inactive)
OVCAR-4
  GI50: 13.6 µM (inactive)
SNB-75
  GI50: 1.31 µM (inactive)
EKVX
  GI50: 6.55 µM (inactive)
SW-620
  GI50: 3.48 µM (inactive)
TK-10
  GI50: 9.04 µM (inactive)
KM12
  GI50: 3.15 µM (inactive)

## Nc1nc(Cl)cc(NCCC2(CO)CCC2)n1
SR
  GI50: > 100 µM (inactive)
UACC-257
  GI50: > 100 µM (inactive)
NCI-H226
  GI50: > 100 µM (inactive)
NCI-H522
  GI50: > 100 µM (inactive)
OVCAR-5
  GI50: > 100 µM (inactive)
ACHN
  GI50: > 100 µM (inactive)
HL-60
  GI50: > 100 µM (inactive)
MDA-MB-231
  GI50: > 100 µM (inactive)
DU-145
  GI50: > 100 µM (inactive)
MDA-N
  GI50: > 100 µM (inactive)
CCRF-CEM
  GI50: > 100 µM (inactive)
COLO 205
  GI50: > 100 µM (inactive)
HCT-116
  GI50: > 100 µM (inactive)
OVCAR-4
  GI50: > 100 µM (inactive)
SNB-75
  GI50: > 100 µM (inactive)
EKVX
  GI50: 4.73 µM (inactive)
SW-620
  GI50: > 100 µM (inactive)
TK-10
  GI50: > 100 µM (inactive)
KM12
  GI50: > 100 µM (inactive)

## O=C1C2CC[C@@H]3C(=O)C(Cl)(Cl)[C@@H]3CCC2C1(Cl)Cl (some centres undefined)
SR
  GI50: 26.9 µM (inactive)
UACC-257
  GI50: > 100 µM (inactive)
NCI-H226
  GI50: > 100 µM (inactive)
NCI-H522
  GI50: > 58.7 µM (inactive)
OVCAR-5
  GI50: > 100 µM (inactive)
ACHN
  GI50: > 100 µM (inactive)
HL-60
  GI50: 6.17 µM (inactive)
MDA-MB-231
  GI50: > 100 µM (inactive)
DU-145
  GI50: > 100 µM (inactive)
MDA-N
  GI50: > 72.4 µM (inactive)
CCRF-CEM
  GI50: 23.3 µM (inactive)
COLO 205
  GI50: 71 µM (inactive)
HCT-116
  GI50: > 86.5 µM (inactive)
OVCAR-4
  GI50: > 100 µM (inactive)
SNB-75
  GI50: > 100 µM (inactive)
EKVX
  GI50: > 100 µM (inactive)
SW-620
  GI50: > 100 µM (inactive)
TK-10
  GI50: > 100 µM (inactive)
KM12
  GI50: > 100 µM (inactive)

## O=[N+]([O-])C(/C(Cl)=C(\Cl)Br)=C(/Cl)SCc1ccccc1
SR
  GI50: 1.44 µM (inactive)
UACC-257
  GI50: 6.21 µM (inactive)
NCI-H226
  GI50: 14.4 µM (inactive)
NCI-H522
  GI50: 1.89 µM (inactive)
OVCAR-5
  GI50: 12.5 µM (inactive)
ACHN
  GI50: 2.97 µM (inactive)
HL-60
  GI50: 0.336 µM (active)
MDA-MB-231
  GI50: 2.94 µM (inactive)
DU-145
  GI50: 13 µM (inactive)
MDA-N
  GI50: 1.85 µM (inactive)
CCRF-CEM
  GI50: 0.507 µM (active)
COLO 205
  GI50: 1.98 µM (inactive)
HCT-116
  GI50: 2.48 µM (inactive)
OVCAR-4
  GI50: 3.87 µM (inactive)
SNB-75
  GI50: 3.26 µM (inactive)
EKVX
  GI50: 6.67 µM (inactive)
SW-620
  GI50: 2.03 µM (inactive)
TK-10
  GI50: 4.5 µM (inactive)
KM12
  GI50: 14.4 µM (inactive)

## O=C(c1ccccc1)N1CCN(C(=S)N(C(=O)c2ccccc2)c2ccccc2)C1=S
SR
  GI50: 2.07 µM (inactive)
UACC-257
  GI50: 8.49 µM (inactive)
NCI-H226
  GI50: 10.7 µM (inactive)
NCI-H522
  GI50: 1.87 µM (inactive)
OVCAR-5
  GI50: 15.9 µM (inactive)
ACHN
  GI50: 2.79 µM (inactive)
HL-60
  GI50: 2.25 µM (inactive)
MDA-MB-231
  GI50: 10.3 µM (inactive)
DU-145
  GI50: 3.01 µM (inactive)
MDA-N
  GI50: 4.18 µM (inactive)
CCRF-CEM
  GI50: 2.56 µM (inactive)
COLO 205
  GI50: 3.28 µM (inactive)
HCT-116
  GI50: 3.4 µM (inactive)
OVCAR-4
  GI50: 4.6 µM (inactive)
SNB-75
  GI50: 2.16 µM (inactive)
EKVX
  GI50: 5.92 µM (inactive)
SW-620
  GI50: 3.31 µM (inactive)
TK-10
  GI50: 5.83 µM (inactive)
KM12
  GI50: 5.71 µM (inactive)

— ChEMBL document CHEMBL1201862, “PubChem BioAssay data set” (2004)
